# Experimental data as given in ChEMBL document CHEMBL1201862, “PubChem BioAssay data set” (2004).
# Activity calls are given as the source filed them.
# Legend:
# [1] = target: T1, Small ubiquitin-related modifier 1 (Homo sapiens, UniProt P63165); assay: SUMO1 protein interaction blockers, potency – biochemical, fluorescence polarization, uHTS hits, dose response (AID 624382); assay type: functional; settings: read-out: IC50_Mean
# [2] = target: T1, Small ubiquitin-related modifier 1; assay: SUMO1 protein-protein binding blockers, potency – biochemical, FRET, dose response (AID 624383); assay type: functional; settings: read-out: IC50_Mean
# [3] = target: SWI/SNF-related matrix-associated actin-dependent regulator of chromatin subfamily A member 2 (Homo sapiens, UniProt P51531); assay: Luminescence-based cell-based high throughput dose response assay to identify activators of the function of SWI/SNF related, matrix associated, actin dependent regulator of chromatin, subfamily a, member 2 (SMARCA2, BRM).; assay type: functional
# [4] = Counterscreen for activators of the function of SWI/SNF related, matrix associated, actin dependent regulator of chromatin, subfamily a, member 2 (SMARCA2, BRM): Luminescence-based cell-based high throughput dose response assay to identify non-selective compounds using the VP16 reporter assay.; assay type: functional
# [5] = target: SUMO-activating enzyme (Homo sapiens, UniProt Q9UBT2); assay: blockers of UBC9-mediated SUMO conjugation – biochemical, AlphaScreen, SUMOylation inhibitor project, confirmation (AID 2018); assay type: functional
# [6] = target: T2, Corticotropin-releasing factor receptor 2/Corticotropin-releasing factor-binding protein (Homo sapiens, UniProt P24387+Q13324); assay: Dose Response confirmation of uHTS hits for small molecule antagonists of the CRF-binding protein and CRF-R2 receptor complex.; assay type: functional; settings: read-out: IC50_Mean
# T2 sequence (Q13324 whole entry): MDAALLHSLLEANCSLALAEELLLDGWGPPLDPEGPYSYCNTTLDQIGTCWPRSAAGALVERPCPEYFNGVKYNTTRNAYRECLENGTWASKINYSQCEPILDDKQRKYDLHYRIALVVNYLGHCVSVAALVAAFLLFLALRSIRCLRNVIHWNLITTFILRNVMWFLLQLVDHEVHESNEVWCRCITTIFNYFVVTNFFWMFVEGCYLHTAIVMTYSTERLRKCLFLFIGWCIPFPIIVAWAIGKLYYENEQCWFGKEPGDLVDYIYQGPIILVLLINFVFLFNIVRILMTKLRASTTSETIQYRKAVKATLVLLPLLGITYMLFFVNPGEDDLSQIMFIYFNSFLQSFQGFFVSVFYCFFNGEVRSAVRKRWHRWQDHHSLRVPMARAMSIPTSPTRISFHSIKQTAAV
# T2 sequence (P24387 whole entry): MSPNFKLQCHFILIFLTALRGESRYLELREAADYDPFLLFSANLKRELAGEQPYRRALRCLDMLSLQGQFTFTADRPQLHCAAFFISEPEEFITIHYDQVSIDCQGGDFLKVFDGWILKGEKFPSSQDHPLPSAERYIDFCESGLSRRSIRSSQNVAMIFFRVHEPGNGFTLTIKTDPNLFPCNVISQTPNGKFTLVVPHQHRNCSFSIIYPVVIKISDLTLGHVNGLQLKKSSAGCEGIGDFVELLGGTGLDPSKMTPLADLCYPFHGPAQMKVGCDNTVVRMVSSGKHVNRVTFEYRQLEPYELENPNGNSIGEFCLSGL
# [7] = target: T2, Corticotropin-releasing factor receptor 2/Corticotropin-releasing factor-binding protein; assay: activators of CRF receptor 2 with binding protein – uHTS hits, confirmation (AID 602473); assay type: functional; settings: read-out: EC50_Mean
# [8] = blockers of CRF-binding protein–CRF-R2 complex – cell-based, uHTS hits, 384-well, dose response (AID 651639); assay type: functional, Homo sapiens; settings: read-out: IC50_Mean
# [9] = cells; assay type: functional, cell-based
# [10] = target: T3, Streptokinase A (Streptococcus pyogenes serotype M1, UniProt P10520); assay: viability-normalized secreted streptokinase activity reduction – plasminogen activation absorbance, OD405, dose response (AID 1914); assay type: functional, Streptococcus pyogenes M1 GAS;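 also: secreted streptokinase activity via plasminogen activation per viability signal from cell pellet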
# T3 sequence (P10520 whole entry): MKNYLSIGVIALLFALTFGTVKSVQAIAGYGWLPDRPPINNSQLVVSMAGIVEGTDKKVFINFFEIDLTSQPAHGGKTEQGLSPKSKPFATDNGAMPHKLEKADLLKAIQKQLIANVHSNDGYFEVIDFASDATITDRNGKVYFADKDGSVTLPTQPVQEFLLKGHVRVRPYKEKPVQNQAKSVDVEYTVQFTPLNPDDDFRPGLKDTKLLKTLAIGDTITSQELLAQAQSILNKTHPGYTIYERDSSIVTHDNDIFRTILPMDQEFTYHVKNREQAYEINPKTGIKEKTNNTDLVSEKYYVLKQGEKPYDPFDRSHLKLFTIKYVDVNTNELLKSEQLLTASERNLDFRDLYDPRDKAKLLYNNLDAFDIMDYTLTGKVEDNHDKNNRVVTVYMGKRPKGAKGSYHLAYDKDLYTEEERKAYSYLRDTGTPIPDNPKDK
# [11] = cells; assay type: functional, cell-based; remark: listed apart in the source
# [12] = tested on: Streptococcus; assay: GAS UMAA2166 growth inhibition – luminescence, BacTiterGlo, counter-screen for streptokinase expression inhibitor project, dose response (AID 1915); assay type: functional, organism-based;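 also: potency for reduction of bacterial viability or growth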
# [13] = target: T4, Sentrin-specific protease 8 (Homo sapiens, UniProt Q96LD8); assay type: functional
# T4 sequence (Q96LD8 whole entry): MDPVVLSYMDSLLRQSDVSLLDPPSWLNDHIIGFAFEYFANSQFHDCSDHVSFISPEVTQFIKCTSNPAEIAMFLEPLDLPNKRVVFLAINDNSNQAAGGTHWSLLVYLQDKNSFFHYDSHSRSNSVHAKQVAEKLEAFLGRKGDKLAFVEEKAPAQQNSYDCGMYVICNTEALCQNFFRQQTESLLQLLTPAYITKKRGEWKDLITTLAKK
# [14] = target: T4, Sentrin-specific protease 8; assay type: functional; remark: listed apart in the source
# [15] = target: Cytochrome P450 2C9 (Homo sapiens, UniProt P11712)
# [16] = target: Induced myeloid leukemia cell differentiation protein Mcl-1 (Homo sapiens, UniProt Q07820); assay type: functional
# [17] = target: Glucose-6-phosphate 1-dehydrogenase (Homo sapiens, UniProt P11413); assay: inhibition of Homo sapiens G6PD, dose series – biochemical, fluorescence, selectivity assay for P. falciparum G6PD inhibitor project, dose response (AID 504792); assay type: functional
# [18] = target: T5, Replicative DNA helicase DnaB (Mycobacterium tuberculosis, UniProt P9WMR3); assay: DnaB intein splicing inhibitors, dose response, biochemical, cell-free fluorescence (AID 449749); assay type: functional
# T5 sequence (P9WMR3 whole entry): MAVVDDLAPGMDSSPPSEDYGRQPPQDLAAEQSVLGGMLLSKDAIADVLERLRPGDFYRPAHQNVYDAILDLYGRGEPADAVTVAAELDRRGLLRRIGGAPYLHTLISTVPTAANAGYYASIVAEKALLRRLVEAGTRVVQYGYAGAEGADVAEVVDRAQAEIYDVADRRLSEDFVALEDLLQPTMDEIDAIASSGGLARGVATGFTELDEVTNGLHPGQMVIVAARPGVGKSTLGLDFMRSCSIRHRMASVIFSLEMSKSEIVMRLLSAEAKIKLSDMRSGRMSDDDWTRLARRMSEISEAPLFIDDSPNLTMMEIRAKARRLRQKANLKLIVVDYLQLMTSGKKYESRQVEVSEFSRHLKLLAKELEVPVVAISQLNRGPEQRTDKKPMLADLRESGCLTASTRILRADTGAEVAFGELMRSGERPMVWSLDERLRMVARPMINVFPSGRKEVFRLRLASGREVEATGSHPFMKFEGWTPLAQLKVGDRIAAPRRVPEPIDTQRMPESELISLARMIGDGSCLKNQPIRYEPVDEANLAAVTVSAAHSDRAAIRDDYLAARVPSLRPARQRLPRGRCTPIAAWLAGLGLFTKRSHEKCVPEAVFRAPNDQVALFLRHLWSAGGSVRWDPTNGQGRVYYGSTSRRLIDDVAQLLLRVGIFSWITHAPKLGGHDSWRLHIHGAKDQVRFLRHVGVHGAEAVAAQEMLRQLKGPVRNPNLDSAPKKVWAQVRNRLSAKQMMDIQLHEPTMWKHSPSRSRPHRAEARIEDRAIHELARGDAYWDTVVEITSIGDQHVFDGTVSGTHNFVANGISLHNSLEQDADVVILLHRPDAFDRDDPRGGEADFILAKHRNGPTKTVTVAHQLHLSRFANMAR
# [19] = target: T6, Protein RecA (Mycobacterium tuberculosis, UniProt P9WHJ3); assay: Fluorescence Cell-Free Homogeneous Dose Retest to Identify Inhibitors of RecA-Intein Splicing Activity. [Related pubchem assays (depositor defined):AID2097, AID2223, AID489010, AID492950]; assay type: functional
# T6 sequence (P9WHJ3 whole entry): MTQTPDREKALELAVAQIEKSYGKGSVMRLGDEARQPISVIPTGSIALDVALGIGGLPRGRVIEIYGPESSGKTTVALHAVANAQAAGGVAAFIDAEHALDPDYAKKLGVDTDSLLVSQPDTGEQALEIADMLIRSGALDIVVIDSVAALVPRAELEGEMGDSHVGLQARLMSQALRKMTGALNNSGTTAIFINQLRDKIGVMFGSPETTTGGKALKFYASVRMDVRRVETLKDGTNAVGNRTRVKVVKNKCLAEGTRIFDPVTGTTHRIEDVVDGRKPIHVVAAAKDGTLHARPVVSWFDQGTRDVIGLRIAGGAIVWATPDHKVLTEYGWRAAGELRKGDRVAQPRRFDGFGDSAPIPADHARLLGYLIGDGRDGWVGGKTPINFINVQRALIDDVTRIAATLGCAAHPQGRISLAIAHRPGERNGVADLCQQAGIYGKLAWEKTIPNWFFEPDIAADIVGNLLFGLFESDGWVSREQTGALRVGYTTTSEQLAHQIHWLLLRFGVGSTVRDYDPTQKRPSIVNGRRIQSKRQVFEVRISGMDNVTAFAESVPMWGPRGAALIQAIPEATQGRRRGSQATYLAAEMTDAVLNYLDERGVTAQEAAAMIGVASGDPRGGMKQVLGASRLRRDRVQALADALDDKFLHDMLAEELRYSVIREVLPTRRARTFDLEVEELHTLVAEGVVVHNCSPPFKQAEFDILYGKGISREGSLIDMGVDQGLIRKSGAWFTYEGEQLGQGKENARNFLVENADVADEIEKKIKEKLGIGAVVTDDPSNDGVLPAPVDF
# [20] = target: T7, Rac GTPase-activating protein 1 (Homo sapiens, UniProt Q9H0H5); assay: blockers of MgcRacGAP-driven Rac1 GTP hydrolysis – biochemical, ADP Hunter fluorescence, primary and confirmatory, confirmation (AID 624330); assay type: functional
# T7 sequence (Q9H0H5 whole entry): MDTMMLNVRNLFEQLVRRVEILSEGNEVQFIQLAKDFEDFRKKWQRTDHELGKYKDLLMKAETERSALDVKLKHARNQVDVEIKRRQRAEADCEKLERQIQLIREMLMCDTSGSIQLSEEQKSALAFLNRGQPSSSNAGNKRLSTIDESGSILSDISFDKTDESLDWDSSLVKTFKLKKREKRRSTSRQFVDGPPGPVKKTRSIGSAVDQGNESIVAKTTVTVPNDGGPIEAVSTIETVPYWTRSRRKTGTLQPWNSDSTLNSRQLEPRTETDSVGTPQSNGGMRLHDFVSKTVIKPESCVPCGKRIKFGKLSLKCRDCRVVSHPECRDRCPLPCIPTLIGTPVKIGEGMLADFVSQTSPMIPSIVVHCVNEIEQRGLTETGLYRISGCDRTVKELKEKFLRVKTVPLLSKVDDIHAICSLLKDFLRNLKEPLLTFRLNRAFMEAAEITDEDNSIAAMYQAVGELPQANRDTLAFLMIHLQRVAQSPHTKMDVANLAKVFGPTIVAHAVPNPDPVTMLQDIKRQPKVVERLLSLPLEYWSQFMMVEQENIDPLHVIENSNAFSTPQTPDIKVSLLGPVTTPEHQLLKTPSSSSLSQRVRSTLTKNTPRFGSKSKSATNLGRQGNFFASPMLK
# [21] = bead-based luminescence quenchers, dual-tagged ARNT – biochemical, AlphaScreen, cherry-pick, artefact control for ARNT-TACC3 interaction inhibitor project, dose response (AID 651705); assay type: functional;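 also: AlphaScreen bead proximity signal that flags compounds interfering with the detection technology; potency reflects signal decrease which marks the compound as an assay artifact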
# T1 sequence (P63165 whole entry): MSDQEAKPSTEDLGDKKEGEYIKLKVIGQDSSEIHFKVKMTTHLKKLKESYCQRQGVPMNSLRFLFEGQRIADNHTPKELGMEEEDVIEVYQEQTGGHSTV
# Sequence of Induced myeloid leukemia cell differentiation protein Mcl-1 (Q07820 whole entry): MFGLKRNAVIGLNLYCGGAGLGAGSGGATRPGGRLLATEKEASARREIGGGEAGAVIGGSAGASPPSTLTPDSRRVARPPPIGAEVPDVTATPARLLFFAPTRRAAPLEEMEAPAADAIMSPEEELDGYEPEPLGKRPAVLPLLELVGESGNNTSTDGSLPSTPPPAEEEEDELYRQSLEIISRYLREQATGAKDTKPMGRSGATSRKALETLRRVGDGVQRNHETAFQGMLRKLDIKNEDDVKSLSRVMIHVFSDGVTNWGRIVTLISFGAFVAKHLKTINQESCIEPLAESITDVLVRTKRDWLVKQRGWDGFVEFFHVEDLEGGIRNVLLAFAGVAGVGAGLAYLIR
# Sequence of Glucose-6-phosphate 1-dehydrogenase (P11413 whole entry): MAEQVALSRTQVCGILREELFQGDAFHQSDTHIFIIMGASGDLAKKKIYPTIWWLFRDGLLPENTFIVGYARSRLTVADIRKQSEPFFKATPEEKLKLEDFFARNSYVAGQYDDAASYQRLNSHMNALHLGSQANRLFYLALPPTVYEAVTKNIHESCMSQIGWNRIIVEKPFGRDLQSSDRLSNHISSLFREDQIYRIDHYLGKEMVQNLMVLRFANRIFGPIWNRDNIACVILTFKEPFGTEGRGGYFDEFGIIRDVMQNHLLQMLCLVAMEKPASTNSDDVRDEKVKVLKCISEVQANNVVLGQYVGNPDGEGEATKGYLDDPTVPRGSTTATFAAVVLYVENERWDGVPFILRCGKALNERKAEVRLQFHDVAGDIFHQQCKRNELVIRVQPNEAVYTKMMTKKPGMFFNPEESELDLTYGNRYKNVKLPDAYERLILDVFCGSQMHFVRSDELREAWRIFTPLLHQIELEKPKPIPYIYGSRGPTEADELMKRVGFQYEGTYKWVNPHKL
# Sequence of SUMO-activating enzyme (Q9UBE0 whole entry): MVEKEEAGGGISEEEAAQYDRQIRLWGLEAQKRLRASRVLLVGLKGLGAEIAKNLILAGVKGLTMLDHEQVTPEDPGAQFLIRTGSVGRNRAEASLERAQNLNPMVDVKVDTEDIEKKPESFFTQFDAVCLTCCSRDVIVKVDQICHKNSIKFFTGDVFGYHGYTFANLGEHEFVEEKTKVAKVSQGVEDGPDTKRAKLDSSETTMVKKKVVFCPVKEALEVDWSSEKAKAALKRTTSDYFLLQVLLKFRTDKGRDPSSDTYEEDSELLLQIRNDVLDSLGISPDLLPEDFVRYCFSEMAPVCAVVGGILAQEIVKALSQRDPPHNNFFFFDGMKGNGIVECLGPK
# Sequence of SUMO-activating enzyme (Q9UBT2 whole entry): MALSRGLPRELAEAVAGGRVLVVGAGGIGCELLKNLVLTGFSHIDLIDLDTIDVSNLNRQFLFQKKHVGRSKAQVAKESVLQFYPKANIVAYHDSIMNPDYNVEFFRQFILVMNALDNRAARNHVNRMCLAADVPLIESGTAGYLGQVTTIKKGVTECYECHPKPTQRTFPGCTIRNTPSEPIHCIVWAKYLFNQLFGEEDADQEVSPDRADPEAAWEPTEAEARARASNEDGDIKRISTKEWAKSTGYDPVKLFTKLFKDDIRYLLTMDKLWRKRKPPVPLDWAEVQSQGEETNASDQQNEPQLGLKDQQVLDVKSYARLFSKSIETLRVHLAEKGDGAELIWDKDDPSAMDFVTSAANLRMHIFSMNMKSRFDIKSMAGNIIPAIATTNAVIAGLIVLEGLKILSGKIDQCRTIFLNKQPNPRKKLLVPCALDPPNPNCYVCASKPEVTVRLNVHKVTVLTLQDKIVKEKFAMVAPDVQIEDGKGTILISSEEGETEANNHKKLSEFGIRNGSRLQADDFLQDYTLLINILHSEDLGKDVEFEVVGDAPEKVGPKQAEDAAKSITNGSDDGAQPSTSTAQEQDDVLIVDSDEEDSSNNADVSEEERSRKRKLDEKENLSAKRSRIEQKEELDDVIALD
# Sequence of Cytochrome P450 2C9 (P11712 whole entry): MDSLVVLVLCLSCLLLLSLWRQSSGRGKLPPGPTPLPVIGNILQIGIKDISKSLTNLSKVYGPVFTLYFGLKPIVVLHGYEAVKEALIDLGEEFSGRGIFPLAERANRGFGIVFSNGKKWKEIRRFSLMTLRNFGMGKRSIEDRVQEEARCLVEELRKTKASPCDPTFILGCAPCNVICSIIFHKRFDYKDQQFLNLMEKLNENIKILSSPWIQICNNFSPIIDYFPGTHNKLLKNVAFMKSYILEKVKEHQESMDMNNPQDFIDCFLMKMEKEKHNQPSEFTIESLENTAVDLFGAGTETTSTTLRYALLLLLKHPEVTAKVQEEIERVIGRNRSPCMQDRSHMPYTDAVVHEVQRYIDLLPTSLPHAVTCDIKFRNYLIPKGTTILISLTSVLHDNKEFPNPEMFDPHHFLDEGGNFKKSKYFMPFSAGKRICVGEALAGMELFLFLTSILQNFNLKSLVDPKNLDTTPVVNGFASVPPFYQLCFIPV
# Sequence of SWI/SNF-related matrix-associated actin-dependent regulator of chromatin subfamily A member 2 (P51531 whole entry): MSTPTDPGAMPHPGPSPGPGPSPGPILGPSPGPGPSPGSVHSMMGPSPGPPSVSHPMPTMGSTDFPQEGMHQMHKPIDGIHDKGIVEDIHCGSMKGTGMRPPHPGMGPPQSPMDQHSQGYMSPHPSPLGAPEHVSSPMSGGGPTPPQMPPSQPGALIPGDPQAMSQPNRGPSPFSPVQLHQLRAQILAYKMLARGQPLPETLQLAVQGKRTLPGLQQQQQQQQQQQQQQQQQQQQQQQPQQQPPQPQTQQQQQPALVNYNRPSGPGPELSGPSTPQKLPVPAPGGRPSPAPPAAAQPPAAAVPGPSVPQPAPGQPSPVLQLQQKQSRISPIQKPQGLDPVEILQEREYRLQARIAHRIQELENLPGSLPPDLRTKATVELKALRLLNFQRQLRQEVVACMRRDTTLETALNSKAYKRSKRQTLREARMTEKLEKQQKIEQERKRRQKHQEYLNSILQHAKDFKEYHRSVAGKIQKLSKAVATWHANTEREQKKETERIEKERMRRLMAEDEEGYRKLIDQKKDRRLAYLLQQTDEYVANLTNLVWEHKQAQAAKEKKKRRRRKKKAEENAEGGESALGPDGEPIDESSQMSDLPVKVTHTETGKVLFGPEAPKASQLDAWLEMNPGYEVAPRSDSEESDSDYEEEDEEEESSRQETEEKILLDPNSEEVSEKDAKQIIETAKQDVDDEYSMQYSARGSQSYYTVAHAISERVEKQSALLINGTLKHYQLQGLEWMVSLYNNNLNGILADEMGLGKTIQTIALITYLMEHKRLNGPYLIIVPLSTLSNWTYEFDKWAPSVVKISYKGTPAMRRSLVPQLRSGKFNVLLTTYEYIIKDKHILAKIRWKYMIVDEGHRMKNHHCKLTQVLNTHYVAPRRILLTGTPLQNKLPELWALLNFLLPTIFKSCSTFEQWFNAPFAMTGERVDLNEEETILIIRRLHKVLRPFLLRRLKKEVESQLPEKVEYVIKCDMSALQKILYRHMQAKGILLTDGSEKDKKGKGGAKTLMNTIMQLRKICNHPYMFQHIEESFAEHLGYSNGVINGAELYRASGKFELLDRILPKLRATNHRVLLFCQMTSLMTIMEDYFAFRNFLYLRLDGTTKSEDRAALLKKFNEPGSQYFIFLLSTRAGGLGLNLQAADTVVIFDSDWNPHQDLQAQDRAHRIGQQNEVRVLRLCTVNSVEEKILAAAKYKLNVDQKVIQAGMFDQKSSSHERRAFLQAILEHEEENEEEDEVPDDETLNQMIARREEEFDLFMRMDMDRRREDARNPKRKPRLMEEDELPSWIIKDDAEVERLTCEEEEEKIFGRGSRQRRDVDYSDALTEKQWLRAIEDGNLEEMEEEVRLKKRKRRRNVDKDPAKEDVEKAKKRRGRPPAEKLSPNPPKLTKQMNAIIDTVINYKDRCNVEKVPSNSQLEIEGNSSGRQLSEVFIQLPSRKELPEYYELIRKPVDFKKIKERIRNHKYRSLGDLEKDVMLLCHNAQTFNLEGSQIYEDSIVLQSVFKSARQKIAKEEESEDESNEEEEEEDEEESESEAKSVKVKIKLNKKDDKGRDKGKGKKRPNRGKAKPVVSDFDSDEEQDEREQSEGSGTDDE
structure (smiles),measurement,setting,value
COc1ccc(CCNC(=O)c2cc3c(=O)n4cccc(C)c4nc3s2)cc1OC,IC50,[1],> 66.6 µM (inactive)
same,IC50,[2],100 µM (inactive)
COc1ccc(C2Nc3ccccc3C(=O)N2c2ccc(C)cc2)cc1COc1ccccn1 (stereo not drawn),EC50,[3],> 91.1 µM (inactive)
same,EC50,[4],> 91.1 µM (inactive)
COC(=O)c1nc2n(n1)C(c1ccc([N+](=O)[O-])cc1)C(C(=O)Nc1ccc(Cl)cc1)=C(C)N2 (stereo not drawn),IC50,[5],32.4 µM (active)
same,IC50,[6],17.8 µM (active)
same,EC50,[7],> 53 µM (inactive)
same,IC50,[8],> 20 µM (inactive)
N#C/C(=C\c1ccc(/C=C(/C#N)c2nn(CCO)c(N)c2C#N)cc1)c1nn(CCO)c(N)c1C#N,EC50,[9],> 350 µM (not active)
same,EC50,[10],> 150 µM (not active)
same,EC50,[11],> 350 µM (not active)
same,EC50,[12],> 150 µM (not active)
same,IC50,[1],> 66.6 µM (inactive)
same,IC50,[2],2.85 µM (active)
COc1ccc(NC(S)=NCc2cccnc2)cc1,EC50,[9],> 350 µM (not active)
same,EC50,[11],> 350 µM (not active)
same,IC50,[8],17.8 µM (active)
O=C(Nc1c(-c2ccc(Cl)cc2)n[nH]c1O)c1ccc(Br)cc1,IC50,[13],34.1 µM (active)
same,IC50,[14],48 µM (active)
Cc1nc(-c2c(C(F)(F)F)noc2-c2ccc(O)cc2O)cs1,IC50,[6],22.7 µM (active)
same,EC50,[7],> 53 µM (inactive)
same,IC50,[8],> 20 µM (inactive)
same,AC50,[15],3.16 µM (inconclusive)
CCOC(=O)c1c(OCC)[nH]c2c1cc(O)c1ccccc12,IC50,[16],0.935 µM (active)
same,IC50,[17],> 80 µM (inactive)
same,AC50,[18],> 380 µM (inconclusive)
same,EC50,[19],2.64 µM (active)
same,IC50,[20],63.5 µM (active)
same,AC50,[21],93 µM (active)
COc1cc(C(c2c(C)[nH][nH]c2=O)c2c(C)[nH][nH]c2=O)ccc1OS(=O)(=O)c1ccc(C)cc1,AC50,[18],0.484 µM (active)
same,EC50,[19],0.195 µM (active)
same,IC50,[13],20.4 µM (active)
same,IC50,[14],35.4 µM (active)
